In patent publication EP0361348A1, “Non-steroidal pharmaceutical composition and process for producing the same” (NIPPON HYPOX LABORATORIES INCORPORATED, priority 1988, dated 1990):

Test system: male SD rats
Assay: Anti-inflammatory action: carrageenin-induced sole swelling (plethysmometer)
Type: in vivo
Settings: 1 mg/kg in terms of Piroxicam, oral; for Swelling percent: 1 hour before carrageenin, mean, n=5
Method: As test animals, there were used male SD rats each weighing about 200 g. As a test sample, there was used a suspension of each of the anti-inflammatory agent compositions No. 1-4 obtained in Examples 1-4 above, in a gum arabic solution (the concentration of Piroxicam in the suspension was 1%). This test sample was orally administered to each rat in an amount of 1 mg/kg in terms of Piroxicam. One hour after the administration of the test sample, an inflammatory agent (0.1 ml of a physiological saline solution containing 1% of carrageenin) was subcutaneously injected to each rat at the sole. Then, the sole volume was measured with the lapse of time using a plethysmometer, and swelling percent was calculated from the following formula. Swelling percent (%) = [(Ps - Po)/Po] x 100 where Po = sole volume before injection of carrageenin Ps = sole volume at a certain time after the injection of carrageenin For comparison, Piroxicam alone was orally administered in an amount of 1 mg/kg, in the same manner as above, and the change of swelling percent with time was examined.

With `CN1C(C(=O)Nc2ccccn2)=C(O)c2ccccc2S1(=O)=O` [Piroxicam alone, Piroxicam] the Swelling percent (0.5 hour after carrageenin injection) was 26.79%, the Swelling percent (1 hour after carrageenin injection) was 39.51% and the Swelling percent (1.5 hours after carrageenin injection) was 46.71%. It also gave a Swelling percent (2 hours after carrageenin injection) of 45.72%, a Swelling percent (3 hours after carrageenin injection) of 43.77% and a Swelling percent (4 hours after carrageenin injection) of 44.33%. The anti-inflammatory action (result in words, from Table 1) was “significant anti-inflammatory action”.
